Data: patent publication US8669232B2, “Flavonol compounds, a bioactive extract/fraction from Ulmus wallichiana and its compounds for prevention for treatment of osteo-health related disorders” (Council of Scientific & Industrial Research, priority 2008, dated 2014)

Legend:
[1] = test system: Bone marrow cells (BMCs); assay: In vitro mineralization from mouse bone marrow; type: cell-based, balb/c mice; conditions: 1 nM and 100 nM, 21 days
Excerpt: Adult balb/c mice were used in this study. Bone marrow cells (BMCs) were harvested from the femurs and tibias of the animals, as described elsewhere (Maniatopoulos et al. Cell Tissue Res 1988:254:317-30.; Ishaug et al., J Biomed Mater Res 1997; 36:17-28.). Briefly, bones were aseptically excised from the hind limbs of the mice following ether euthanasia. The soft tissue was removed, and the proximal end of the femur and distal end of the tibia were clipped off using sterile scissors, a hole was created in the knee joint end of each bone with an needle, and the marrow was flushed from the shaft with control medium (CM) which consisted of α-MEM supplemented with 10% fetal calf serum, 100 U/ml penicillin, 100 U/ml streptomycin (Sigma, Chemical Co., St. Louis, Mo., USA). The cells were suspended in this medium, and the cell suspensions from all bones were combined in a centrifuge tube. The suspension was spun down at 800 rpm for 5 min. Cells were counted by using a haemocytometer. The supernatant was aspirated, and the pellet was re-suspended in fresh CM and then seeded into 12-well plates. 200000 cells/well were cultured in 12-well plates and in a humidified atmosphere, with 5% CO2, at 37° C. in the same medium supplemented with 10 mM-β-glycerophosphate, 50 μg/ml L-ascorbic acid and 10^−8M dexamethasone with different concentration of the test compound. This medium was replaced every other day (John et al. Trends. Biomater. Artif. Organs 2002:16(1):28-33.; Connolly. Clin Orthop 1995:313: 8-18.; Gebhart and Lane. Acta Orthop Belg 1991:57(2):130-43.; Gurpinar et al. J Biomater Appl 2003; 18(1):25-33; Lan and Wang, Blood Substitutes. Biotechnol 2003; 31(1):59-68.). Treatments K012, K058, K068 and K0100 at 1 nM and 100 nM concentration were given for 21 days and after completion of the treatment samples were rinsed with PBS followed by fixation (4% HCHO for […]). Samples were then rinsed with nanopure water and stained for 10 min with 40 mM AR-S, pH 4.2, at room temperature. […] Photomicrographs of the stained wells were taken. Subsequently, alizarin red-S stain was extracted using 10% (w/v) CPC in […] sodium phosphate, pH 7.0, for […] at room temperature, and the resulting solutions were read on a Microplate reader with a test wavelength of 540 nm against a reference wavelength of 620 nm.

[2] = test system: calvarial osteoblasts; assay: Alkaline phosphatase activity assay in calvarial osteoblasts; type: cell-based, neonatal Sprague-Dawley rats
Experimental: Neonatal rat calvarial cell cultures are prepared as described previously (Chattopadhyay et al., Endocrinology 145:3451-62, 2004) using slight modification. Briefly, for calvarial osteoblast cultures, frontal and parietal bones from neonatal Sprague-Dawley rats (1-3 day old) were digested in 0.1% collagenase/0.1% dispase in α-MEM to obtain 5 sequential digests. The second through fifth digests are combined and grown to confluence at 37° C. and 5% CO2 in air in α-MEM, supplemented with 10% fetal bovine serum (FBS), 2 mM glutamine, 100 U/ml penicillin-streptomycin, non-essential amino acid solution and sodium pyruvate.
For alkaline phosphatase (ALP) assay, osteoblasts were plated in 96-well (2000 cells/well) plates in regular growth medium. Twenty-four hours later, when the cells formed a confluent monolayer, medium was replaced with α-MEM medium supplemented with 10% FBS, 10 mM β-glycerophosphate and 50 μg/ml ascorbic acid. Treatment was given with varying concentration of the test compound K012, K058, K068 and K100 at 1 nM and 100 nM concentration. Forty-eight hours after induction, ALP activity of the osteoblasts was determined as described by Akiyama et al (Exp Cell Res 235:362-369, 1997) with slight modifications. Briefly, cells were washed once with PBS and ALP activity was measured by adding ALP buffer (1 M diethanolamine, 0.5 mM MgCl2, 1 mg/ml PNPP, pH 9.0), incubating in 37° C., and absorbance (405 nm) was measured using a microplate spectrophotometer. Statistical significance was determined by paired two-tailed Student's t-tests.

[3] = test system: Ishikawa cells; assay: In vitro estrogenicity / anti-estrogenicity (ALP induction); type: cell-based, human; conditions: 72 h; for inhibition of increase in ALP activity stimulated by 17β-estradiol (anti-estrogenicity): 10^−11 to 10^−6 M with 10^−8 M 17β-estradiol; for ALP levels (estrogenicity): 10^−11 to 10^−6 M
Experimental: The expression of alkaline phosphatase is induced in Ishikawa cells in response to estrogen or estrogen like substances (Littlefield et al, Endocrinology. 1990 December; 127(6):2757-62.). Ishikawa cells were plated in 96-well flat bottomed microtiter plates at a density of 5000 cells/well and cultured in phenol red free DMEM containing 10% charcoal treated FCS. After 24 h of plating, cells were serum-starved for 12 h. Thereafter, for testing estrogenicity of compounds, the cells were treated with different concentrations (10^−6 to 10^−11 M) of pure compounds K058 and K012. Same concentrations of Raloxifene were also used for comparison. Estrogen concentration of 10^−8 M was used as a positive control. Compound treatments were performed for 72 h at 37° C. in CO2 incubator. Experiments were repeated 4 times. For the anti-estrogenicity studies, the compounds K012 and K058 at 10^−6 to 10^−11 M were added with 10^−8 M estrogen. After 72 h of incubation, the media was removed and the plates were washed twice with PBS and dried by tapping, gently. Freeze fracture of cells was achieved by placing the plates at −70° C. for 15, min followed by bringing to room temperature. The plates were then placed on ice and 50 μl of ice cold diethanolamine solution (5 mM P-nitrophenyl phosphate (PNP) and 0.25 mM MgCl2 in 1 M diethanolamine) was added to each well. The plates were then placed at 37° C. for 30 minutes for color (yellow) development is a function of ALP activity. Absorbance was measured at 405 nm.

Structure (SMILES)	mineralization of bone marrow osteoblasts (alizarin red staining) [1]	osteoblast differentiation (summary of in vitro effects) [2]	inhibition of increase in ALP activity stimulated by 17β-estradiol (anti-estrogenicity) [3]	ALP levels (estrogenicity) [3]
O=c1c(O)c(-c2ccc(O)c(O)c2)oc2cc(O)c(C3O[C@H](CO)[C@@H](O)[C@H](O)[C@H]3O)c(O)c12 (some centres unmarked) [K012, 6-Glucopyranosyl-3,3′,4′,5,7-pentahydroxyflavone]	stimulated	promoted	did not inhibit	no increase
O=C1c2c(cc(O)c([C@@H]3OC(CO)[C@@H](O)[C@H](O)C3O)c2O)O[C@@H](c2ccc(O)c(O)c2)[C@@H]1O (stereo partly drawn) [K058, (2S,3S)-(+)-3′,4′,5,7-tetrahydroxydihydroflavonol-6-C-β-D-glucopyranoside]	stimulated	promoted	did not inhibit	no increase
